What all share (assay): isothermal titration calorimetry
What all share (type): binding

Assay [1] has as its target BACOVA_04394 (xylan HTCS sensor), periplasmic domain (Bacteroides ovatus, UniProt A0ABU3IPP8). Conditions: 25 °C, HEPES pH 8.0; for Ka: binding seen, too low to fit (TLTF); for Ka / (M^-1): single-site fit. An excerpt: isothermal titration calorimetry on BACOVA_04394 (xylan HTCS sensor), periplasmic domain
Assay [2] concerns the target BACOVA_02740 (β-glucan HTCS sensor), periplasmic domain (Bacteroides ovatus, UniProt A0ABU3IRK2). Conditions: 25 °C, HEPES pH 8.0; for Ka / (M^-1): single-site fit. An excerpt:
isothermal titration calorimetry on BACOVA_02740 (β-glucan HTCS sensor), periplasmic domain

For assay [3], the target named is T1, BT0366 (arabinan HTCS sensor), periplasmic domain (Bacteroides thetaiotaomicron, UniProt Q8AAU8).
T1 construct: gene BT_0366
T1 sequence (Q8AAU8 24-810 limits assumed): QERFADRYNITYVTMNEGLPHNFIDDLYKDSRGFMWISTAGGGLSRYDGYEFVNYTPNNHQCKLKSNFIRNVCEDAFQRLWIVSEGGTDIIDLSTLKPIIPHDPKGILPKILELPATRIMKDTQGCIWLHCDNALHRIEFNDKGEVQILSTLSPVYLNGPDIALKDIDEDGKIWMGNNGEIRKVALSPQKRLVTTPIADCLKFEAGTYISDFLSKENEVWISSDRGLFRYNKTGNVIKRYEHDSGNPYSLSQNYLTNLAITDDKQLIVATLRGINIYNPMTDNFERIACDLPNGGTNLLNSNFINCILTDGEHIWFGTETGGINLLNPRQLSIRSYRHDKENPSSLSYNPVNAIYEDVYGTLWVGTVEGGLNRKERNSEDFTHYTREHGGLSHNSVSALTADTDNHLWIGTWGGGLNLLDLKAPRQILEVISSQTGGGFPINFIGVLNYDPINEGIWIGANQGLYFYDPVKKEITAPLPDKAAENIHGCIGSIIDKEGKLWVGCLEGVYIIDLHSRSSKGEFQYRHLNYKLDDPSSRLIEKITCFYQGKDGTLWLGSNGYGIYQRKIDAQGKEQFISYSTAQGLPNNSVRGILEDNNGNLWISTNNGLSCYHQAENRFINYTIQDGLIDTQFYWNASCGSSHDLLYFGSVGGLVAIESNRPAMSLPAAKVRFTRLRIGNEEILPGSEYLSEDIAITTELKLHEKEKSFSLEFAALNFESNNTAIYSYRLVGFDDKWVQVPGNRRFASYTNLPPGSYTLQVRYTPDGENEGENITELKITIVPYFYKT
Particulars: 25 °C, HEPES pH 8.0; two-site fit, site 1 (stronger). An excerpt:
isothermal titration calorimetry on BT0366 (arabinan HTCS sensor), periplasmic domain

Data on 12 compounds can be found in paper PMC3243724, “Recognition and Degradation of Plant Cell Wall Polysaccharides by Two Human Gut Symbionts” (PLoS Biology, 2011).

Molecules are shown by their SMILES.

Chain of BACOVA_02740 (β-glucan HTCS sensor), periplasmic domain (A0ABU3IRK2 21-759 limits assumed): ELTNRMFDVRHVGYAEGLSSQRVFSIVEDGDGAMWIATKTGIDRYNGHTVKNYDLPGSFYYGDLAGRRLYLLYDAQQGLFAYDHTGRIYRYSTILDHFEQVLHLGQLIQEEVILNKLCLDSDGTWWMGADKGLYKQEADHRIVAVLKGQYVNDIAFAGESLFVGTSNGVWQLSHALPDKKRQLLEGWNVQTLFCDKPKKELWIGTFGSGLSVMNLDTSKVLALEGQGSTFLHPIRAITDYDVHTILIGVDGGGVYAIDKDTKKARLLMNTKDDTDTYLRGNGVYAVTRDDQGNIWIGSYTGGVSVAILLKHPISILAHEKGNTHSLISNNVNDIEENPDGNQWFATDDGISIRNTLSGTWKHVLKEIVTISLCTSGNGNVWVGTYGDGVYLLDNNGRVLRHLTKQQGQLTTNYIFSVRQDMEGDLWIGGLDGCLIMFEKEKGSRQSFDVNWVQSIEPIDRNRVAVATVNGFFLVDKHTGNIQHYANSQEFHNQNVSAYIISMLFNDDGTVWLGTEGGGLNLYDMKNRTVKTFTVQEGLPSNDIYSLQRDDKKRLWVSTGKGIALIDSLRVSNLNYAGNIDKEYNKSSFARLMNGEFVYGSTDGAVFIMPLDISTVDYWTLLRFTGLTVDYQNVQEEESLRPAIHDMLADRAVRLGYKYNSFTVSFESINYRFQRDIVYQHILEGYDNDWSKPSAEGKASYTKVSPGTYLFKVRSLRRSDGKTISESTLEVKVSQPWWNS
Chain of BACOVA_04394 (xylan HTCS sensor), periplasmic domain (A0ABU3IPP8 21-805 limits assumed): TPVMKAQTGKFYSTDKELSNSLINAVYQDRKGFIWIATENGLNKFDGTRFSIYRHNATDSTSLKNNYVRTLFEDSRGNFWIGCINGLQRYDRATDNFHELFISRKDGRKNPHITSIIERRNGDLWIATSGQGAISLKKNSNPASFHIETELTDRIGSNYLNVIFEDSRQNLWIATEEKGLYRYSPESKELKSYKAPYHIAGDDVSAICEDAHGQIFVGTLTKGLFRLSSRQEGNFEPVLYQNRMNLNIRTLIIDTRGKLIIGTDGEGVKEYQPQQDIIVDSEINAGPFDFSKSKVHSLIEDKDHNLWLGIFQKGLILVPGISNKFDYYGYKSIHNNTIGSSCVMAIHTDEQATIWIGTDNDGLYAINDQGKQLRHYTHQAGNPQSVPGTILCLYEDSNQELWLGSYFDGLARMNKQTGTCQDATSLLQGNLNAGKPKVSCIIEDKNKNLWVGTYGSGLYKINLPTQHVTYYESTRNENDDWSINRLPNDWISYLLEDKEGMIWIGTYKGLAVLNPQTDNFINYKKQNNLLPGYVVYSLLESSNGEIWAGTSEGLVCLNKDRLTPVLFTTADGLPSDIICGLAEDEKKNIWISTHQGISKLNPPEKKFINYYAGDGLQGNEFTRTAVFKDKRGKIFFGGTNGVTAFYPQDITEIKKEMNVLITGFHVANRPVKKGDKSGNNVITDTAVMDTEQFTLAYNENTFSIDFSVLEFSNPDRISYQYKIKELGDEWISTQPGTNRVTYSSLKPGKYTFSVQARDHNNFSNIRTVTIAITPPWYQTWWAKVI

Consider `OC1OC[C@@H](O[C@@H]2OC[C@@H](O)[C@H](O)[C@H]2O)[C@H](O)[C@H]1O` (stereo partly drawn) [Xylobiose], for which the Ka result in assay [1] is “∼5.0×10^2”.

Regarding `OC[C@H]1O[C@@H](O[C@@H]2[C@@H](O)[C@H](O[C@H]3[C@H](O)[C@@H](O)[C@H](O[C@H]4[C@H](O)[C@@H](O)[C@H](O[C@H]5[C@H](O)[C@@H](O)C(O)O[C@@H]5CO)O[C@@H]4CO)O[C@@H]3CO)O[C@H](CO)[C@H]2O)[C@H](O)[C@@H](O)[C@@H]1O` (stereo partly drawn) [Glucopentaose A (β3,4,4,4)], in assay [2] (binding seen, too low to fit (TLTF)), the Ka entry is “∼5.0×10^2”. As for `OC[C@@H]1O[C@@H](OC[C@@H]2O[C@@H](OC[C@@H]3O[C@@H](OC[C@@H]4O[C@@H](OC[C@@H]5O[C@@H](OC[C@@H]6O[C@@H](OC[C@@H]7O[C@@H](OC[C@@H]8OC(O)[C@H](O)[C@H]8O)[C@H](O)[C@H]7O)[C@H](O)[C@H]6O)[C@H](O)[C@H]5O)[C@H](O)[C@H]4O)[C@H](O)[C@H]3O)[C@H](O)[C@H]2O)[C@H](O)[C@H]1O` (stereo partly drawn) [Arabinooctaose], in assay [3], the “Ka / (M^-1)” value came out at 4.8E4±0.1. For `OC[C@H]1O[C@@H](O[C@H]2[C@H](O)[C@@H](O)[C@H](O[C@H]3[C@H](O)[C@@H](O)[C@H](O[C@H]4[C@H](O)[C@@H](CO)OC(O)[C@@H]4O)O[C@@H]3CO)O[C@@H]2CO)[C@H](O)[C@@H](O)[C@@H]1O` (stereo partly drawn) [Glucotetraose B (β4,4,3)], the “Ka / (M^-1)” value in assay [2] amounted to 2.5E3±1.3.

For `OC1OC[C@@H](O[C@@H]2OC[C@@H](O[C@@H]3OC[C@@H](O[C@@H]4OC[C@@H](O)[C@H](O)[C@H]4O)[C@H](O)[C@H]3O)[C@H](O)[C@H]2O)[C@H](O)[C@H]1O` (stereo partly drawn) [Xylotetraose], the “Ka / (M^-1)” value in assay [1] was 6.8E5±1.2. As to `OC[C@H]1O[C@@H](O[C@H]2[C@H](O)[C@@H](O)[C@H](O[C@H]3[C@H](O)[C@@H](CO)OC(O)[C@@H]3O)O[C@@H]2CO)[C@H](O)[C@@H](O)[C@@H]1O` (stereo partly drawn) [Glucotriose B (β4,3)], the “Ka / (M^-1)” value in assay [2] is reported as 3.4E3±1.9. In the case of `OC[C@@H]1O[C@@H](OC[C@@H]2O[C@@H](OC[C@@H]3O[C@@H](OC[C@@H]4O[C@@H](OC[C@@H]5O[C@@H](OC[C@@H]6OC(O)[C@H](O)[C@H]6O)[C@H](O)[C@H]5O)[C@H](O)[C@H]4O)[C@H](O)[C@H]3O)[C@H](O)[C@H]2O)[C@H](O)[C@H]1O` (stereo partly drawn) [Arabinohexaose], in assay [3], the “Ka / (M^-1)” value came out at 3.9E3±0.9. On to `OC[C@@H]1O[C@@H](OC[C@@H]2O[C@@H](OC[C@@H]3O[C@@H](OC[C@@H]4O[C@@H](OC[C@@H]5O[C@@H](OC[C@@H]6O[C@@H](OC[C@@H]7OC(O)[C@H](O)[C@H]7O)[C@H](O)[C@H]6O)[C@H](O)[C@H]5O)[C@H](O)[C@H]4O)[C@H](O)[C@H]3O)[C@H](O)[C@H]2O)[C@H](O)[C@H]1O` (stereo partly drawn) [Arabinoheptaose], for which the “Ka / (M^-1)” value in assay [3] was determined as 3.5E4±0.6. Consider `OC1OC[C@@H](O[C@@H]2OC[C@@H](O[C@@H]3OC[C@@H](O[C@@H]4OC[C@@H](O[C@@H]5OC[C@@H](O[C@@H]6OC[C@@H](O)[C@H](O)[C@H]6O)[C@H](O)[C@H]5O)[C@H](O)[C@H]4O)[C@H](O)[C@H]3O)[C@H](O)[C@H]2O)[C@H](O)[C@H]1O` (stereo partly drawn) [Xylohexaose], for which the Ka entry in assay [1] is reported as “∼5.0×10^2”.

For the compound `OC1OC[C@@H](O[C@@H]2OC[C@@H](O[C@@H]3OC[C@@H](O)[C@H](O)[C@H]3O)[C@H](O)[C@H]2O)[C@H](O)[C@H]1O` (stereo partly drawn) [Xylotriose], the “Ka / (M^-1)” value in assay [1] is 1.1E3±0.1. Take `OC[C@H]1O[C@@H](O[C@H]2[C@H](O)[C@@H](O)[C@H](O[C@@H]3[C@@H](O)[C@H](O[C@H]4[C@H](O)[C@@H](O)C(O)O[C@@H]4CO)O[C@H](CO)[C@H]3O)O[C@@H]2CO)[C@H](O)[C@@H](O)[C@@H]1O` (stereo partly drawn) [Glucotetraose C (β4,3,4)]: in assay [2], the “Ka / (M^-1)” value is on record as 3.2E4±0.7. As to `OC1OC[C@@H](O[C@@H]2OC[C@@H](O[C@@H]3OC[C@@H](O[C@@H]4OC[C@@H](O[C@@H]5OC[C@@H](O)[C@H](O)[C@H]5O)[C@H](O)[C@H]4O)[C@H](O)[C@H]3O)[C@H](O)[C@H]2O)[C@H](O)[C@H]1O` (stereo partly drawn) [Xylopentaose], the “Ka / (M^-1)” value in assay [1] worked out at 8.8E4±2.9.
